Results from ChEMBL document CHEMBL1201862, “PubChem BioAssay data set” (2004).
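How tested: cells in 96-well plates exposed to compound for 48 hours at five concentrations. At the GI50, growth is halved.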 Calls of active or inactive are those of the source. Rule as the data show it: active = GI50 up to about 1.1 µM and inactive = higher.

How the values were obtained:
Test in all cases: NCI tumour cell line growth inhibition, 48 h
HOP-92 = test system: HOP-92
786-0 = test system: 786-0
HCT-15 = test system: HCT-15
A498 = test system: A498
NCI-H226 = test system: NCI-H226
PC-3 = test system: PC-3
SK-OV-3 = test system: SK-OV-3
A549 = test system: A549
SK-MEL-28 = test system: SK-MEL-28
SW-620 = test system: SW-620
M14 = test system: M14
HL-60 = test system: HL-60
EKVX = test system: EKVX
OVCAR-8 = test system: OVCAR-8
SF-268 = test system: SF-268
SF-539 = test system: SF-539
MDA-MB-231 = test system: MDA-MB-231
CCRF-CEM = test system: CCRF-CEM
SF-295 = test system: SF-295
UACC-257 = test system: UACC-257

Cc1ccc(S(=O)(=O)Nn2c(O)c(C#N)c(-c3ccc([N+](=O)[O-])cc3)c(C#N)c2=O)cc1
GI50 (HOP-92): > 100 µM (inactive)
GI50 (786-0): > 100 µM (inactive)
GI50 (HCT-15): > 100 µM
GI50 (A498): > 100 µM (inactive)
GI50 (NCI-H226): > 100 µM (inactive)
GI50 (PC-3): > 100 µM (inactive)
GI50 (SK-OV-3): > 100 µM (inactive)
GI50 (A549): > 100 µM (inactive)
GI50 (SK-MEL-28): > 100 µM (inactive)
GI50 (SW-620): > 100 µM (inactive)
GI50 (M14): > 100 µM (inactive)
GI50 (HL-60): > 100 µM (inactive)
GI50 (EKVX): > 100 µM (inactive)
GI50 (OVCAR-8): > 100 µM (inactive)
GI50 (SF-268): > 100 µM (inactive)
GI50 (SF-539): > 100 µM (inactive)
GI50 (MDA-MB-231): > 100 µM (inactive)
GI50 (CCRF-CEM): > 100 µM (inactive)
GI50 (SF-295): > 100 µM (inactive)
GI50 (UACC-257): > 100 µM (inactive)
